For 47 molecules, IC50 results are on record in patent publication US11286268B1, “EIF4E-inhibiting compounds and methods” (EFFECTOR THERAPEUTICS, INC., priority 2019, dated 2022).

The assay addresses recombinant eIF4E (Homo sapiens (Human), UniProt P06730). The assay can be described thus: Fluorescence polarization competition assay for eIF4E binding potency. The method, boiled down:
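Competitive displacement format: compounds compete with a fluorescent m7GDP tracer (20 nM) for 75 nM recombinant eIF4E. Incubation is 30 min at room temperature, protected from light, with 1% DMSO. Polarization read gives IC50 over eight 3-fold concentrations.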
On the technique in general: Polarisation of emitted light reports the rotation of a fluorescent probe.

[1] abbreviates: fluorescence polarization competition, 75 nM recombinant eIF4E, 20 nM EDA-m7GDP-ATTO-550, IC50 class, read-out: elF4E FP.
Setting [2] is: inhibition of eIF4E/EDA-m7GDP-ATTO-550 binding by 50%, Table 4B calculated values, read-out: IC50.
Setting [3] is: inhibition of eIF4E/EDA-m7GDP-ATTO-550 binding, calculated IC50 values, Table 4B, read-out: IC50.

Like-named read-outs stand apart in the source and are kept apart here.

Chain of recombinant eIF4E (P06730 whole entry): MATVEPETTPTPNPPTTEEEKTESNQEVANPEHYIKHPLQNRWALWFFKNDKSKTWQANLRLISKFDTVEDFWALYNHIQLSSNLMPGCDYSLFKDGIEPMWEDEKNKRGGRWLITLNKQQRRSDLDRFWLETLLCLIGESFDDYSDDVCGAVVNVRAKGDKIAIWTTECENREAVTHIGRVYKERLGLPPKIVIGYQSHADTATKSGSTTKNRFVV

For the molecule `Cc1cc(C)nc(-c2c(C(F)(F)F)cc3nc(C)n(CCOc4ccc(Cl)cc4-c4cc(C)nc5c(C(=O)O)csc45)c(=O)c3c2C#N)n1` [compound 965], the IC50 reads like this: under setting [1], 50 to 1000 nM; under setting [2], 118 nM. On the same counts, the results for `Cc1ccc(-c2cc(Cl)ccc2OCCn2c(C)nc3c(C#N)nc(-c4ccccn4)c(C)c3c2=O)c2scc(C(=O)O)c12` [compound 743] are 50 to 1000 nM and 188 nM. On the same counts, the results for `N#Cc1cccc2nc(C(F)F)n(CCOc3ccc(Cl)cc3-c3ccc(C(=O)O)c4ccsc34)c(=O)c12` [compound 191] are 50 to 1000 nM and 144 nM. Regarding `Cc1nc2cnc(N3CCN(C)C(C(F)(F)F)C3)c(C#N)c2c(=O)n1CCOc1ccc(Cl)cc1-c1ccnc2c(C(=O)O)csc12` (stereo not drawn) [compound 1334], under setting [3], the IC50 is 51.3 nM. In the case of `Cc1nc2cnc(N(C)C3CCN(CC(F)(F)C(F)F)CC3)c(C#N)c2c(=O)n1CCOc1ccc(Cl)cc1-c1ccnc2c(C(=O)O)csc12` [compound 1515], the IC50 under setting [3] was 32.1 nM. For the molecule `Cc1cc(-c2cc(Cl)ccc2OCCn2c(C)nc3cc(Cl)c(-c4cc(F)cnc4C)c(C#N)c3c2=O)c2scc(C(=O)O)c2n1` [compound 392], the IC50 was less than 50 nM under setting [1] and 25.1 nM under setting [2].

Turning to `Cc1nc2cnc(N3CC4(C3)CN(C(C)(C)C(F)F)C4)c(C#N)c2c(=O)n1CCOc1ccc(Cl)cc1-c1ccnc2c(C(=O)O)csc12` [compound 823], the IC50 by setting is: under setting [1], less than 50 nM; under setting [2], 11.5 nM. Taken in the same sequence, the figures for `Cc1nc2c(ccc3cnncc32)c(=O)n1CCOc1ccc(Cl)cc1-c1ccnc2c(C(=O)O)csc12` [compound 659] were less than 50 nM and 26.4 nM.

As for `N#Cc1cccc2nc(C(F)F)n(CCOc3ccc(Cl)cc3-c3ccnc4c(C(=O)O)scc34)c(=O)c12` [compound 2035], the IC50 under setting [3] was 72.3 nM. For `O=C(O)c1cccc(-c2cc(Cl)ccc2OCCn2ccc3cnccc3c2=O)c1` [compound 5], the IC50 is greater than 1000 nM under setting [1] and 7640 nM under setting [2].

`Cc1nc2cc(C#N)c(OC(F)F)c(C#N)c2c(=O)n1CCOc1ccc(Cl)cc1-c1ccnc2c(C(=O)O)csc12` [compound 547]: the IC50 under setting [1] fell in the range of 50 to 1000 nM and the IC50 under setting [2] was 134 nM. In the case of `Cc1nc2cnc(N(C)C3CCN(C4CC(F)(F)C4)CC3)c(C#N)c2c(=O)n1CC#Cc1ccc(Cl)cc1-c1ccnc2c(C(=O)NS(=O)(=O)C(C)(C)C)csc12` [compound 1812], the IC50 under setting [3] is 18.4 nM. For `Cc1ncc(C#N)c2c(=O)n(CCOc3ccc(Cl)cc3-c3ccc(Cl)c4c(C(=O)O)csc34)c(C)nc12` [compound 723], the IC50 reads like this: under setting [1], less than 50 nM; under setting [2], 28.7 nM.

With `Cc1cc(-c2cc(Cl)ccc2OCCn2c(C)nc3cc(C(F)(F)F)c(-c4ccn(C)n4)nc3c2=O)c2scc(C(=O)O)c2n1` [compound 787], the IC50 under setting [1] is less than 50 nM and the IC50 under setting [2] is 10.9 nM.

For `Cc1cc(-c2cc(Cl)ccc2OCCn2c(C)nc3cc(C(F)(F)F)c(N4CCN(C)CC4)c(C#N)c3c2=O)c2sc(C)c(C(=O)O)c2n1` [compound 1416], the IC50 under setting [3] is 12.7 nM. Still for that read-out and setting: the result for `Cc1nc2cnc(N3CCN(C(C)(C)C(F)F)CC3)c(C#N)c2c(=O)n1CCOc1ccc(Cl)cc1-c1ccnc2c(C(=O)O)csc12` [compound 1309] reads 37.2 nM. As to `Cc1nc2cnc(N3CCN(CC4(F)CC4)CC3)c(C#N)c2c(=O)n1CC#Cc1ccc(Cl)cc1-c1ccnc2c(C(=O)O)csc12` [compound 1167], the IC50 runs as follows: under setting [1], less than 50 nM; under setting [2], 17.3 nM. Taken in the same sequence, the figures for `O=C(O)c1cccc(-c2cc(Cl)ccc2OCCn2cnc3cc(F)c(F)cc3c2=O)c1` [compound 77] were greater than 1000 nM and 1440 nM. Regarding `Cc1cc(-c2cc(Cl)ccc2OCCn2c(C)nc3c(C)nc(-c4c(C)cccc4C)c(C#N)c3c2=O)c2scc(C(=O)O)c2n1` [compound 872], under setting [1], the IC50 is less than 50 nM.

For `Cc1cc(-c2cc(Cl)ccc2OCCn2c(C)nc3cnc(N(C)CC(F)(F)F)c(C#N)c3c2=O)c2scc(C(=O)O)c2n1` [compound 971], the IC50 is 50 to 1000 nM under setting [1] and 57.8 nM under setting [2]. Taken in the same sequence, the figures for `Cc1cc(-c2cc(Cl)ccc2OCCn2c(C)nc3cc(C(F)(F)F)c(-c4cnc(C(F)F)cn4)nc3c2=O)c2scc(C(=O)O)c2n1` [compound 1020] were less than 50 nM and 23.4 nM.

Regarding `Cc1cc(-c2c(C(F)(F)F)cc3nc(C)n(CCOc4ccc(Cl)cc4-c4cc(C)nc5c(C(=O)O)csc45)c(=O)c3c2C#N)cc(C)n1` [compound 465], the IC50 runs as follows: under setting [1], less than 50 nM; under setting [2], 15.1 nM. On the same counts, the results for `Cc1nc2cc(C(F)F)c(CN(C)C)c(C#N)c2c(=O)n1CCOc1ccc(Cl)cc1-c1ccnc2c(C(=O)O)csc12` [compound 530] are less than 50 nM and 6.65 nM. Take `Cc1nc2cnc(N(C)[C@H]3CC[C@@H](N(C)CCF)CC3)c(C#N)c2c(=O)n1CC#Cc1ccc(Cl)cc1-c1ccnc2c(C(=O)O)csc12` [compound 1533]: under setting [3], the IC50 was 21.7 nM. Still for that read-out and setting: the result for `Cc1nc2cnc(N(C)C3CCN(CC(C)F)CC3)c(C#N)c2c(=O)n1CCOc1ccc(Cl)cc1-c1ccnc2c(C(=O)O)csc12` (stereo not drawn) [compound 1654] reads 21 nM.

Consider `Cc1cc(-c2cc(Cl)ccc2OCCn2c(C)nc3cc(C(F)(F)F)c(-c4ncccn4)nc3c2=O)c2scc(C(=O)O)c2n1` [compound 765], for which the IC50 was less than 50 nM under setting [1] and 9.19 nM under setting [2].

Consider `Cc1nc2cnc(N(C)C3CCN(C4(C(F)(F)F)CC4)CC3)c(C#N)c2c(=O)n1CC#Cc1ccc(Cl)cc1-c1ccnc2c(C(=O)O)csc12` [compound 1530], for which the IC50 under setting [3] was 33.5 nM. `Cc1cc(-c2cc(Cl)ccc2OCCn2c(C)nc3c(C)ncc(C#N)c3c2=O)c2scc(C(O)(C(F)(F)F)C(F)(F)F)c2n1` [compound 749]: the IC50 is, setting by setting: under setting [1], greater than 1000 nM; under setting [2], greater than 100000 nM. On to `Cc1nc2cnc(N(C)C3CCN(CCC(C)(F)F)CC3)c(C#N)c2c(=O)n1CC#Cc1ccc(Cl)cc1-c1ccnc2c(C(=O)NS(C)(=O)=O)csc12` [compound 1713], for which the IC50 under setting [3] was 15.8 nM. With `Cc1cc(-c2cc(Cl)ccc2OCCn2c(C)nc3cc(OC(F)F)c(F)c(C#N)c3c2=O)c2scc(C(=O)O)c2n1` [compound 585], the IC50 is, setting by setting: under setting [1], less than 50 nM; under setting [2], 29.6 nM. On the same counts, the results for `Cc1cc(-c2cc(Cl)ccc2OCCc2c(C)n(C)c3cc(C(F)(F)F)cc(C#N)c3c2=O)c2scc(C(=O)O)c2n1` [compound 409] are less than 50 nM and 13.3 nM. Turning to `Cc1cc(-c2cc(Cl)ccc2OCCn2c(C)nc3cc(C(F)(F)F)c(N4CCC(Cl)CC4)c(C#N)c3c2=O)c2scc(C(=O)O)c2n1` [compound 991], the IC50 under setting [1] was less than 50 nM and the IC50 under setting [2] is 12.1 nM.

`CC(=O)N(C)c1ncc2nc(C)n(CCOc3ccc(Cl)cc3-c3cc(C)nc4c(C(=O)O)csc34)c(=O)c2c1C#N` [compound 1053]: the IC50 reads like this: under setting [1], less than 50 nM; under setting [2], 5.08 nM. Taken in the same sequence, the figures for `Cc1cc(-c2cc(Cl)ccc2OCCn2c(C)nc3cc(Cl)c(NC4CC4)c(C#N)c3c2=O)c2scc(C(=O)O)c2n1` [compound 958] were less than 50 nM and 13.5 nM. Taken in the same sequence, the figures for `Cc1nc2cc(OC(F)(F)F)c(Cl)c(C#N)c2c(=O)n1CCOc1ccc(Cl)cc1-c1ccnc2c(C(=O)O)csc12` [compound 542] were less than 50 nM and 20.2 nM. As for `Cc1nc2cnc(N3CCN(CC(F)(F)F)CC3)c(C#N)c2c(=O)n1CC#Cc1ccc(Cl)cc1-c1ccnc2c(C(=O)O)csc12` [compound 860], the IC50 runs as follows: under setting [1], less than 50 nM; under setting [2], 10.3 nM.

Take `Cc1cc(-c2cc(Cl)ccc2OCCn2c(C)nc3cnc(N4CC(OCC(F)F)C4)c(C#N)c3c2=O)c2scc(C(=O)O)c2n1` [compound 1043]: the IC50 under setting [1] is less than 50 nM and the IC50 under setting [2] is 3.98 nM. In the case of `Cc1cc(-c2cc(Cl)ccc2OCCn2c(C)nc3cc(C(F)(F)F)c(OCCN4CCNCC4)c(C#N)c3c2=O)c2sc(C)c(C(=O)O)c2n1` [compound 1392], the IC50 under setting [3] is 26.5 nM. Same read-out and setting: the result for `Cc1nc2cnc(N3CCN(CCCF)CC3)c(C#N)c2c(=O)n1CC#Cc1ccc(Cl)cc1-c1ccnc2c(C(=O)O)csc12` [compound 1457] reads 18 nM; that for `Cc1sc2c(-c3cc(Cl)ccc3OCCn3c(C)nc4cc(C(F)(F)F)c(N5CCN(C)CC5)c(C#N)c4c3=O)ccc(F)c2c1C(=O)O` [compound 1286], 34.2 nM. Consider `Cc1cc(-c2cc(Cl)ccc2OCCn2c(C)nc3cc(C(F)(F)F)c(N4CCC(C)(C)CC4)nc3c2=O)c2scc(C(=O)O)c2n1` [compound 801], for which the IC50 by setting is: under setting [1], less than 50 nM; under setting [2], 17 nM.

For the molecule `Cc1nc2cnc(N3CC4(C3)CN(C3(CF)CC3)C4)c(C#N)c2c(=O)n1CCOc1ccc(Cl)cc1-c1ccnc2c(C(=O)O)csc12` [compound 825], the IC50 under setting [1] is less than 50 nM and the IC50 under setting [2] was 14.3 nM.

Regarding `Cc1nc2cc(C(F)(F)F)c(N3CCN(C)CC3)c(C#N)c2c(=O)n1CCOc1ccc(Cl)cc1-c1ccnc2c(C#N)csc12` [compound 1254], under setting [3], the IC50 was 26.5 nM. Regarding `N#Cc1c(C(F)(F)F)ccc2ncn(CCOc3ccc(Cl)cc3-c3cccc(C(=O)O)c3)c(=O)c12` [compound 133], the IC50 runs as follows: under setting [1], 50 to 1000 nM; under setting [2], 66.5 nM. Taken in the same sequence, the figures for `C=Cc1ncc2nc(C)n(CCOc3ccc(Cl)cc3-c3cc(C)nc4c(C(=O)O)csc34)c(=O)c2c1C#N` [compound 809] were less than 50 nM and 16 nM. Take `Cc1nc2cnc(N(C)C3CCN(C(C)(C)C(F)(F)F)CC3)c(C#N)c2c(=O)n1CC#Cc1ccc(Cl)cc1-c1ccnc2c(C(=O)O)csc12` [compound 1507]: the IC50 under setting [3] was 16 nM. On to `Cc1nc2cncc(OCCN(C)C)c2c(=O)n1CCOc1ccc(Cl)cc1-c1ccnc2c(C(=O)O)csc12` [compound 841], for which the IC50 reads like this: under setting [1], 50 to 1000 nM; under setting [2], greater than 1000 nM.
